Non-standard residues stand in square brackets, D forms with d. Residues, ends and D or L forms follow the SMILES beside them. Nle = CCCC[C@H](N)C(=O)O
Assays:
[1] = target: T1, PTH/PTHrP receptor in SaOS-2 B10 cells (Homo sapiens, UniProt Q03431); test: Competition binding of mono-125I-[Nle8,18,Tyr34(3-I125)]bPTH1-34 NH2 to SaOS-2 B10 cells; conditions: 2 hrs at room temperature, read-out: IC50 (half maximal inhibition of binding of mono-125I-[Nle8,18,Tyr34(3-I125)]bPTH1-34 NH2)
T1 construct: endogenous in cells; host or cells: SaOS-2 B10 cells (subclone of the human osteosarcoma line SaOS-2)
T1 sequence (Q03431 27-593): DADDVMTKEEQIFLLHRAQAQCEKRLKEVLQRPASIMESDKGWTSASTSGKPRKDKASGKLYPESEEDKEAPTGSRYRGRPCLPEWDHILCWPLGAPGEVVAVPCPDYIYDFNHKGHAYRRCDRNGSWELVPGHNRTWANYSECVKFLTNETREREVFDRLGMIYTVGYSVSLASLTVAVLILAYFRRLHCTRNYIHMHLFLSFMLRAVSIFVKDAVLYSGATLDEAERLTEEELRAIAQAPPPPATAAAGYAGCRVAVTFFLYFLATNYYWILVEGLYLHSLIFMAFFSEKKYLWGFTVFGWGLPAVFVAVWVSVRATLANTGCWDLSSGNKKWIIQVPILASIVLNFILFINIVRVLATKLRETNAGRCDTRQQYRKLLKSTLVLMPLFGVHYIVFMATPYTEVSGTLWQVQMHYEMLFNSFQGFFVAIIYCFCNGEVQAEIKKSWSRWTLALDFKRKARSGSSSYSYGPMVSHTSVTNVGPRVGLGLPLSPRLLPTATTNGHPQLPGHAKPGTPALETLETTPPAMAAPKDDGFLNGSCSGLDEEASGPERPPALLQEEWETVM
Description: SaOS-2 B10 cells were maintained in RPMI1640 medium supplemented with 10% fetal bovine serum (FBS) and 2 mM glutamine at 37° C. in a humidified atmosphere of 5% CO2 in air. The medium was changed every three or four days, and the cells were subcultured every week by trypsinization.
SaOs-2 B10 cells were maintained for four days after they had reached confluence. The medium was replaced with 5% FBS […] medium and incubated for 2 hrs at room temperature with 10×10^4 cpm mono-^125 -I-[Nle^8,18,Tyr^34 (3-I^125)]bPTH1-34 NH2 in the presence or absence of a competing tested PTH agonist. The cells were washed four times with ice-cold PBS and lysed with 0.1M NaOH, and the radioactivity associated with the cells was counted in a scintillation counter. Synthesis of the radiolabelled [Nle8,18. Tyr^34 (3-I^125)]bPTH1-34 NH2 was carried out as described in Goldman M E et al., Endocrinology, 1988, 123, 1468-1475.
The binding assay was conducted on Analogs I-IV and Analog V (i.e., [Nle^8, Nle^18, Tyr^34 ]bPTH1-34 NH2).

[2] = tested on: adenylate cyclase in SaOS-2 B10 cells; test: Adenylate cyclase activity (cyclic AMP) in SaOS-2 B10 cells; type: cell-based, human; conditions: 1 mM IBMX, 5 min incubation with analog, read-out: EC50 (half maximal stimulation of adenylate cyclase)
Description: The adenylate cyclase activity induced by each of Analogs I-V was also measured in SaOS-2 B10 cells as described previously (Rodan et al. 1983 J. Clin. Invest. 72;1511; Goldman et al. 1988 Endocrinology 123, 1468). Confluent SaOS-2 B10 cells in 24 wells plates were incubated 0.5 μCi[^3 H]adenine (26.9 Ci/mmol, New England Nuclear, Boston, Mass.) in fresh medium at 37° C. for 2 hrs, and washed twice with Hank's solution. The cells were treated with 1 mM IBMX [isobutylmethylxanthine, Sigma, St. Louis, Mo.] in fresh medium for 15 min, and a tested PTH analog was added to the medium to incubate for 5 min. The reaction was stopped by the addition of 1.2M TCA followed by sample neutralization with 4N KOH. Cyclic AMP was isolated by the two-column chromatographic method (see Salomon et al. 1974 Anal. Biochem. 58;541). The radioactivity was counted in a scintillation counter (Liquid scintillation counter 2200CA, PACKARD, Downers Grove, Ill.).

| IC50 [1] | EC50 [2] | SMILES |
| --- | --- | --- |
| 1.5 nM | 1.5 nM | CCCC[C@H](NC(=O)[C@H](CO)NC(=O)[C@H](CO)NC(=O)[C@H](CC(C)C)NC(=O)[C@H](Cc1c[nH]cn1)NC(=O)[C@H](CCCCN)NC(=O)CNC(=O)[C@H](CC(C)C)NC(=O)[C@H](CC(N)=O)NC(=O)[C@H](Cc1c[nH]cn1)NC(=O)[C@H](CCCC)NC(=O)[C@H](Cc1ccccc1)NC(=O)[C@H](CCC(N)=O)NC(=O)[C@@H](NC(=O)[C@H](CCC(=O)O)NC(=O)[C@H](CO)NC(=O)[C@@H](NC(=O)[C@H](C)N)C(C)C)[C@@H](C)CC)C(=O)N[C@@H](CCC(=O)O)C(=O)N[C@@H](CCCNC(=N)N)C(=O)N[C@H](C(=O)N[C@@H](Cc1ccccc1)C(=O)N[C@@H](Cc1c[nH]c2ccccc12)C(=O)N[C@@H](CC(C)C)C(=O)N[C@@H](CCCNC(=N)N)C(=O)N[C@@H](CCCCN)C(=O)N[C@@H](CCCCN)C(=O)N[C@@H](CC(C)C)C(=O)N[C@@H](CCC(N)=O)C(=O)N[C@@H](CC(=O)O)C(=O)N[C@H](C(=O)N[C@@H](Cc1c[nH]cn1)C(=O)N[C@@H](CC(N)=O)C(=O)N[C@@H](Cc1ccc(O)cc1)C(N)=O)C(C)C)C(C)C [Analog I, [Nle^8,18,Phe^22,Tyr^34]bPTH1-34 NH2] (H-AVSEIQF[Nle]HNLGKHLSS[Nle]ERVFWLRKKLQDVHNY-NH2; N-terminus assumed) |
| 0.3 nM | 0.5 nM | CCCC[C@H](NC(=O)[C@H](CO)NC(=O)[C@H](CO)NC(=O)[C@H](CC(C)C)NC(=O)[C@H](Cc1c[nH]cn1)NC(=O)[C@H](CCCCN)NC(=O)CNC(=O)[C@H](CC(C)C)NC(=O)[C@H](CC(N)=O)NC(=O)[C@H](Cc1c[nH]cn1)NC(=O)[C@H](CCCC)NC(=O)[C@H](Cc1ccccc1)NC(=O)[C@H](CCC(N)=O)NC(=O)[C@@H](NC(=O)[C@H](CCC(=O)O)NC(=O)[C@H](CO)NC(=O)[C@@H](NC(=O)[C@H](C)N)C(C)C)[C@@H](C)CC)C(=O)N[C@@H](CCCNC(=N)N)C(=O)N[C@@H](CCCNC(=N)N)C(=O)N[C@@H](CCCNC(=N)N)C(=O)N[C@@H](CCC(=O)O)C(=O)N[C@@H](Cc1c[nH]c2ccccc12)C(=O)N[C@@H](CC(C)C)C(=O)N[C@@H](CCCNC(=N)N)C(=O)N[C@@H](CCCCN)C(=O)N[C@@H](CCCCN)C(=O)N[C@@H](CC(C)C)C(=O)N[C@@H](CCC(N)=O)C(=O)N[C@@H](CC(=O)O)C(=O)N[C@H](C(=O)N[C@@H](Cc1c[nH]cn1)C(=O)N[C@@H](CC(N)=O)C(=O)N[C@@H](Cc1ccc(O)cc1)C(N)=O)C(C)C [Analog IV, [Nle^8,18,Arg^19,21,Tyr^34]bPTH1-34 NH2] (H-AVSEIQF[Nle]HNLGKHLSS[Nle]RRREWLRKKLQDVHNY-NH2; N-terminus assumed) |
| 0.3 nM | 0.2 nM | CCCC[C@H](NC(=O)[C@H](CO)NC(=O)[C@H](CO)NC(=O)[C@H](CC(C)C)NC(=O)[C@H](Cc1c[nH]cn1)NC(=O)[C@H](CCCCN)NC(=O)CNC(=O)[C@H](CC(C)C)NC(=O)[C@H](CC(N)=O)NC(=O)[C@H](Cc1c[nH]cn1)NC(=O)[C@H](CCCC)NC(=O)[C@H](Cc1ccccc1)NC(=O)[C@H](CCC(N)=O)NC(=O)[C@@H](NC(=O)[C@H](CCC(=O)O)NC(=O)[C@H](CO)NC(=O)[C@@H](NC(=O)[C@H](C)N)C(C)C)[C@@H](C)CC)C(=O)N[C@@H](CCC(=O)O)C(=O)N[C@@H](CCCNC(=N)N)C(=O)N[C@@H](CCCNC(=N)N)C(=O)N[C@@H](CCC(=O)O)C(=O)N[C@@H](Cc1c[nH]c2ccccc12)C(=O)N[C@@H](CC(C)C)C(=O)N[C@@H](CCCNC(=N)N)C(=O)N[C@@H](CCCCN)C(=O)N[C@@H](CCCCN)C(=O)N[C@@H](CC(C)C)C(=O)N[C@@H](CCC(N)=O)C(=O)N[C@@H](CC(=O)O)C(=O)N[C@H](C(=O)N[C@@H](Cc1c[nH]cn1)C(=O)N[C@@H](CC(N)=O)C(=O)N[C@@H](Cc1ccc(O)cc1)C(N)=O)C(C)C [Analog III, [Nle^8,18,Arg^21,Tyr^34]bPTH1-34 NH2] (H-AVSEIQF[Nle]HNLGKHLSS[Nle]ERREWLRKKLQDVHNY-NH2; N-terminus assumed) |
| 1.5 nM | 2 nM | CCCC[C@H](NC(=O)[C@H](CO)NC(=O)[C@H](CO)NC(=O)[C@H](CC(C)C)NC(=O)[C@H](Cc1c[nH]cn1)NC(=O)[C@H](CCCCN)NC(=O)CNC(=O)[C@H](CC(C)C)NC(=O)[C@H](CC(N)=O)NC(=O)[C@H](Cc1c[nH]cn1)NC(=O)[C@H](CCCC)NC(=O)[C@H](Cc1ccccc1)NC(=O)[C@H](CCC(N)=O)NC(=O)[C@@H](NC(=O)[C@H](CCC(=O)O)NC(=O)[C@H](CO)NC(=O)[C@@H](NC(=O)[C@H](C)N)C(C)C)[C@@H](C)CC)C(=O)N[C@@H](CCC(=O)O)C(=O)N[C@@H](CCCNC(=N)N)C(=O)N[C@H](C(=O)N[C@@H](CCC(=O)O)C(=O)N[C@@H](Cc1c[nH]c2ccccc12)C(=O)N[C@@H](CC(C)C)C(=O)N[C@@H](CCCNC(=N)N)C(=O)N[C@@H](CCCCN)C(=O)N[C@@H](CCCCN)C(=O)N[C@@H](CC(C)C)C(=O)N[C@@H](CCC(N)=O)C(=O)N[C@@H](CC(=O)O)C(=O)N[C@H](C(=O)N[C@@H](Cc1c[nH]cn1)C(=O)N[C@@H](CC(N)=O)C(=O)N[C@@H](Cc1ccc(O)cc1)C(N)=O)C(C)C)C(C)C [Analog V, [Nle^8, Nle^18, Tyr^34]bPTH1-34 NH2, reference compound] (H-AVSEIQF[Nle]HNLGKHLSS[Nle]ERVEWLRKKLQDVHNY-NH2; N-terminus assumed) |
| 0.6 nM | 2 nM | CCCC[C@H](NC(=O)[C@H](CO)NC(=O)[C@H](CO)NC(=O)[C@H](CC(C)C)NC(=O)[C@H](Cc1c[nH]cn1)NC(=O)[C@H](CCCCN)NC(=O)CNC(=O)[C@H](CC(C)C)NC(=O)[C@H](CC(N)=O)NC(=O)[C@H](Cc1c[nH]cn1)NC(=O)[C@H](CCCC)NC(=O)[C@H](Cc1ccccc1)NC(=O)[C@H](CCC(N)=O)NC(=O)[C@@H](NC(=O)[C@H](CCC(=O)O)NC(=O)[C@H](CO)NC(=O)[C@@H](NC(=O)[C@H](C)N)C(C)C)[C@@H](C)CC)C(=O)N[C@@H](CCCNC(=N)N)C(=O)N[C@@H](CCCNC(=N)N)C(=O)N[C@H](C(=O)N[C@@H](CCC(=O)O)C(=O)N[C@@H](Cc1c[nH]c2ccccc12)C(=O)N[C@@H](CC(C)C)C(=O)N[C@@H](CCCNC(=N)N)C(=O)N[C@@H](CCCCN)C(=O)N[C@@H](CCCCN)C(=O)N[C@@H](CC(C)C)C(=O)N[C@@H](CCC(N)=O)C(=O)N[C@@H](CC(=O)O)C(=O)N[C@H](C(=O)N[C@@H](Cc1c[nH]cn1)C(=O)N[C@@H](CC(N)=O)C(=O)N[C@@H](Cc1ccc(O)cc1)C(N)=O)C(C)C)C(C)C [Analog II, [Nle^8,18,Arg^19,Tyr^34]bPTH1-34 NH2] (H-AVSEIQF[Nle]HNLGKHLSS[Nle]RRVEWLRKKLQDVHNY-NH2; N-terminus assumed) |

Source: patent publication US5747456A, “Continuous low-dose administration of parathyroid hormone or its agonist” (Beth Israel Deaconess Medical Center, priority 1996, dated 1998)
